Where “and” joins values, the source holds several entries; their conditions need not be identical. Equal values may be shown once. Where a name gives a salt, the structure may show the parent alone.
Columns and labels:
Experiment in all cases: Field trial, postemergence herbicidal activity, foliar applied, visual rating
Assay type in all cases: in vivo
[1] = tested on: Commelina benghalensis (hairy wandering Jew, COMBE); details: 35DAA, 960 g ai/ha
Procedure: (§1) Treatments consisted of the methyl ester of 4-amino-3-chloro-6-(4-chloro-2-fluoro-3-methoxyphenyl)pyridine-2-carboxylic acid (Cmpd 1) and diclosulam in combination as GF-3220. […] Glyphosate dimethylammonium salt was applied as various commercial formulations containing 480 grams acid equivalent per liter (g ae/L).
(§2) Field trials were conducted under standard field conditions. Plot sizes varied from 3-4 meters (m) wide by 5-10 m long. Treatments were applied with small plot backpack sprayers, using pressurized carbon dioxide (CO2) as propellant. Pressure varied from 30-50 pounds per square inch (PSI), with spray tips typically of a Flat Fan type applying water diluent at 100-150 liters per hectare (L/ha). Boom sizes varied from 3-4 m in width. Weed sizes varied, but all treatments were applied as post-emergence treatments to weeds from 2 leaf to 2 tiller growth stages varying from 2-15 inches in height. No additional adjuvant was mixed with the treatments applied in the field.
(§3) The weed spectrum included, but was not limited to, Commelina benghalensis (hairy wandering Jew, COMBE), Echinochloa crus-galli (barnyardgrass, ECHCG), Euphorbia heterophylla (wild poinsettia, EPHHL), Conyza bonariensis (hairy fleabane, ERIBO), Conyza canadensis (horseweed, ERICA), Conyza sumatrensis (Guernsey fleabane, ERISU) and Ipomoea grandifolia (Corda-de-viola, IAQGR).
(§4) The values reported are percent (%) control visually rated. The predicted percent (%) weed control was determined using Colby's equation.

[2] = tested on: Conyza bonariensis (hairy fleabane, ERIBO); details: 960 g ai/ha
Procedure: as §1, §2, §3, §4

[3] = tested on: Conyza sumatrensis (Guernsey fleabane, ERISU); details: 1200 g ai/ha
Procedure: as §1, §2, §3, §4

[4] = tested on: Echinochloa crus-galli (barnyardgrass, ECHCG); details: 1200 g ai/ha
Procedure: as §1, §2, §3, §4

[5] = tested on: Euphorbia heterophylla (wild poinsettia, EPHHL); details: 960 g ai/ha
Procedure: as §1, §2, §3, §4

[6] = tested on: Ipomoea grandifolia (Corda-de-viola, IAQGR); details: 960 g ai/ha
Procedure: as §1, §2, §3, §4

[7] = tested on: Conyza canadensis (horseweed, ERICA); details: 1200 g ai/ha
Procedure: as §1, §2, §3, §4

In the case of O=C(O)CNCP(=O)(O)O [Glyphosate DMA salt, N-(phosphonomethyl)glycine], the “Mean % weed control” value [1] is reported as 62.0%, the “Mean % weed control” value ([2]; 9DAA) is reported as 11.7% and 10.0% and the “Mean % weed control” value ([2]; 12DAA) is reported as 43.3%. The “Mean % weed control” value ([2]; 14DAA) was 40.0% and 36.7% and 23.3%, the “Mean % weed control” value ([2]; 15DAA) was 48.3% and the “Mean % weed control” value ([2]; 23DAA) was 31.7%. For the same compound, the “Mean % weed control” value ([2]; 35DAA) was 25.0%, the “Mean % weed control” value ([2]; 40DAA) was 46.7% and the “Mean % weed control” value ([2]; 54DAA) was 23.3%. For the same compound, the “Mean % weed control” value ([2]; 67DAA) was 20.0%, the “Mean % weed control” value ([3]; 19DAA) was 19.0% and the “Mean % weed control” value ([3]; 29DAA) was 17.0%. The “Mean % weed control” value ([3]; 46DAA) was 15.7%, the “Mean % weed control” value ([4]; 18DAA) was 16.7% and the “Mean % weed control” value ([4]; 38DAA) was 16.7%. The “Mean % weed control” value ([5]; 7DAA) was 38.8%, the “Mean % weed control” value ([5]; 14DAA) was 52.5% and the “Mean % weed control” value ([5]; 28DAA) was 18.8%. For the same compound, the “Mean % weed control” value ([5]; 35DAA) was 7.5%, the “Mean % weed control” value ([6]; 14DAA) was 40.0% and the “Mean % weed control” value ([6]; 19DAA) was 43.8%. The “Mean % weed control” value ([6]; 28DAA) was 45.0%, the “Mean % weed control” value ([6]; 35DAA) was 53.8% and the “Mean % weed control” value ([6]; 42DAA) was 48.8%. For the same compound, the “Mean % weed control” value ([7]; 30DAA) was 28.8%, the “Mean % weed control” value ([7]; 32DAA) was 32.5% and the “Mean % weed control” value ([7]; 46DAA) was 25.0%. The “Mean % weed control” value ([7]; 47DAA) was 28.8% and the “Mean % weed control” value ([7]; 62DAA) was 20.0%.

— patent publication US20170064953A1, “HERBICIDAL COMPOSITIONS CONTAINING 4-AMINO-3-CHLORO-6-(4-CHLORO-2-FLUORO-3-METHOXYPHENYL) PYRIDINE-2-CARBOXYLIC ACID OR A DERIVATIVE THEREOF, A TRIAZOLOPYRIMIDINE SULFONAMIDE HERBICIDE OR A DERIVATIVE THEREOF, AND GLYPHOSATE OR A DERIVATIVE THEREOF” (Dow AgroSciences LLC, priority 2015, published 2017)
